The source of these data is PubChem BioAssay (NCI).

Common to all, as to test: inhibition of tumour cell growth, NCI panel, 48 h
Assay [1] has as its system CAKI-1 renal.
Assay [2] concerns HOP-62 NSCLC.
The test system of assay [3] is HOP-92 NSCLC.
The subject of assay [4] is OVCAR-4 ovarian.
In assay [5] the test system is RPMI-8226 leukemia.
Assay [6] concerns RXF 393 renal.
The test system of assay [7] is SF-295 CNS.
For assay [8], the system named is SNB-19 CNS.
In assay [9] the test system is U251 CNS.

Where “and” joins values, the source holds several entries; their conditions need not be identical. Identical values can stand only once.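 Compound exposure: 48 hours, 5 concentrations, 96-well plates. Abbreviation: GI50, concentration required for 50% inhibition of growth. TGI marks complete inhibition of growth.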

`CC(C)(CO)CNc1cc(=O)[nH]c(N)n1`: the TGI in assay [1], in [2], in assay [3], in [4], in [5] and in assay [6] was > 100 µM throughout. For the same compound, the TGI in assay [7], in assay [8] and in assay [9] was > 100 µM in each case.
On to `OC(C1CCC=NN1C(O)(C(F)(F)F)C(F)(F)F)(C(F)(F)F)C(F)(F)F` (stereo unspecified), for which the TGI in [1], in [2], in assay [3], in [4], in assay [5] and in assay [6] was > 10 µM throughout. In addition, the TGI in assay [7], in [8] and in assay [9] was > 10 µM throughout.
For the compound `NCCC(N)C(=O)O` (stereo unspecified), the TGI in [1], in assay [2], in assay [3], in [4], in [5] and in assay [6] was > 100 µM throughout. Moreover, the TGI in assay [7], in assay [8] and in assay [9] was > 100 µM throughout.
As for `O=C(Nc1ccccc1)O/N=C(/CBr)c1ccccc1`, the TGI turned out to be 31.7 µM in assay [1]; 68.7 µM in assay [2]; 33.2 µM in assay [3]; 33.8 µM in assay [4]; 51.3 µM in assay [5]; 48 µM in assay [6]. The TGI was found to be 70.1 µM in assay [7], 53.9 µM in assay [8] and 30.5 µM in assay [9].
Consider `Cc1ccc(S(=O)(=O)N/C(=C\C=C\c2ccccc2)C(=O)C(C)(C)C)cc1`, for which the TGI was > 100 µM in assay [1]; 44 µM in assay [2]; 71.9 µM in assay [3]; > 100 µM in [4]; 75.9 µM in assay [5]; > 100 µM in [6]. For the same compound, the TGI in assay [7], in [8] and in assay [9] was > 100 µM in each case.
Take `CC(C)Oc1c(-c2c(OC(C)C)c(=O)c2=O)c(=O)c1=O`: the TGI in [1] was > 100 µM; in assay [2] it was > 85.2 µM; in [3], > 100 µM; in assay [4], > 62.9 µM; in [5] it was > 71.8 µM; in [6], > 78.5 µM. Besides, the results for the TGI in assay [7], in [8] and in [9] were > 100 µM, > 100 µM and > 59.9 µM, respectively.
For the compound `Cc1ccc([N+](=O)[O-])cc1S(=O)(=O)Nc1ccc(C2=NN(c3ccc([N+](=O)[O-])cc3[N+](=O)[O-])C(c3ccccc3)C2)cc1` (stereo unspecified), the TGI was > 100 µM in assay [1]; 33 µM in assay [2]; 35.9 µM in assay [3]; 73.7 µM in assay [4]; > 100 µM in [5]; 33.4 µM in [6]. For the same compound, the results for the TGI in assay [7], in assay [8] and in assay [9] were 35.9 µM, 33 µM and 25.3 µM, respectively.
Take `CC(C)(CN)CN`: the TGI in [1], in [2], in assay [3], in [4], in assay [5] and in assay [6] was > 100 µM each time. In addition, the TGI in assay [7], in [8] and in [9] was > 100 µM each time.
Turning to `C=CC[C@H]1[C@@H](O[Si](C)(C)C(C)(C)C)[C@H](n2ccc(=O)[nH]c2=O)O[C@@H]1CO[Si](C)(C)C(C)(C)C`, the TGI in assay [1] is 4.42 µM; in assay [2], 4 µM; in assay [3], 2.72 µM; in [4] it was 5.97 µM; in [5], 6.03 µM; in assay [6] it was 3.63 µM. Besides, the figures for the TGI in assay [7], in [8] and in [9] were 3.93 µM, 6.76 µM and 4.44 µM, respectively.
As to `CC(=O)O/C=C\OC1CCCC1(c1ccccc1)c1ccccc1` (stereo unspecified), the TGI is 14.3 µM in assay [1]; 25.4 µM in assay [2]; 3.89 µM in [3]; 7.25 µM in assay [4]; 6.13 µM in assay [5]; 5.06 µM in [6]. Besides, the TGI is 23 µM in assay [7], 26.3 µM in assay [8] and 11.6 µM in assay [9].
Turning to `CCN(CC)Cc1nc2sc3c(c2c(=O)n1-c1ccccc1)CCCC3`, the TGI in assay [1] came out at 56.9 µM; in assay [2], 86.7 µM; in assay [3], 51.4 µM; in assay [4], 97.4 µM; in assay [5], 81.9 µM; in assay [6], 37.6 µM. Also, the TGI in assay [7] was 66.3 µM; in [8] it was > 100 µM; in assay [9], 31.3 µM.
For `c1ccc2c(-c3cnc(-c4c[nH]c5ccccc45)cn3)c[nH]c2c1`, the TGI in assay [1], in [2], in assay [3], in [4], in [5] and in assay [6] was > 100 µM throughout. In addition, the TGI in [7] was 50.4 µM; in assay [8], > 100 µM; in assay [9], > 100 µM.
As to `CC(=O)Oc1ccc(/C=C/C(=O)O[C@@H](C)[C@H](C)OC(=O)/C=C/c2ccc(OC(C)=O)c(OC(C)=O)c2)cc1OC(C)=O`, the TGI was > 100 µM in assay [1]; 56.3 µM in assay [2]; 58.2 µM in assay [3]; > 100 µM in assay [4]; 39.1 µM in assay [5]; 44.6 µM in [6]. The TGI is 39.3 µM in assay [7], > 100 µM in assay [8] and > 100 µM in assay [9].
Regarding `COc1cc2c(cc1C[N+](C)(C)CSc1ccccc1)-c1ccccc1CC2`, the TGI in assay [1] was determined as 26.4 µM; in [2], 27.1 µM; in [3], 26.2 µM; in [4] it was 18.9 µM; in assay [5] it was 17.2 µM; in assay [6], 23.1 µM. Besides, the TGI in [7] was found to be 25.5 µM; in [8] it was 10.7 µM; in assay [9], 27.8 µM.
In the case of `CCCCOC(=O)C(=O)C(CCC(=O)c1ccc(C)cc1)C(=O)C=C(C)C` (stereo unspecified), the TGI in [1], in assay [2], in assay [3], in assay [4], in assay [5] and in [6] was > 100 µM in each case. Further, the TGI in assay [7], in assay [8] and in assay [9] was > 100 µM throughout.
Turning to `CC(C)(C)OC(=O)n1cc(C2CNC(=O)C23CCC(=O)N3Cc2ccccc2)c2ccccc21` (stereo unspecified), the TGI in assay [1] is > 100 µM; in assay [2], 57.2 µM; in assay [3] it was 26.7 µM; in assay [4], 36.2 µM; in assay [5] it was 40.8 µM; in assay [6], 44.8 µM. Moreover, the values for the TGI in [7], in [8] and in assay [9] were 35.3 µM, > 100 µM and 37.3 µM, respectively.
Turning to `CSc1nc(NC2CCCC2)c2cc[nH]c2n1`, the TGI in assay [1], in assay [2], in assay [3], in assay [4], in assay [5] and in assay [6] was > 100 µM in each case. Further, the TGI in assay [7], in [8] and in [9] was > 100 µM throughout.
As to `Oc1ccc(Cl)cc1C1=N/C(=N\CN2CCN(C/N=C3/N=C(c4cc(Cl)ccc4O)CC(c4ccccc4)N3)CC2)NC(c2ccccc2)C1` (stereo unspecified), the TGI was 97.6 µM in assay [1]; > 100 µM in assay [2]; > 100 µM in [3]; 78 µM in assay [4]; 76.1 µM in [5]; 43.3 µM in assay [6]. In addition, the figures for the TGI in assay [7], in assay [8] and in [9] were 91.7 µM, > 100 µM and > 100 µM, respectively.
With `COc1ccc2c(c1)OC(c1cccnc1)C(c1ccccc1)C2=O` (stereo unspecified), the TGI in assay [1], in assay [2], in assay [3], in [4], in [5] and in [6] was > 100 µM each time. The TGI in [7], in assay [8] and in assay [9] was > 100 µM throughout.
`Cc1ccc(F)cc1NC(=O)O/N=C(\Cl)C(C)C`: the TGI turned out to be 3.09 µM in assay [1]; 37.2 µM in [2]; 7.07 µM in assay [3]; 33.1 µM in [4]; 4 µM in [5]; 9.51 µM in [6]. Moreover, the TGI was > 61.1 µM in assay [7], > 56.8 µM in [8] and > 56.4 µM in assay [9].
As for `CC(=O)c1ccc(N=Nc2ccc3nonc3c2N)cc1`, the TGI in assay [1], in [2], in [3], in [4], in assay [5] and in [6] was > 100 µM throughout. The TGI in assay [7], in assay [8] and in [9] was > 100 µM throughout.
Consider `CC(C)/C(Cl)=N/OC(=O)Nc1ccc(F)c(Cl)c1`, for which the TGI in assay [1] came out at 3.06 µM; in assay [2], 32.8 µM; in assay [3] it was 3 µM; in assay [4], 24.3 µM; in assay [5], 2.97 µM; in assay [6] it was 25.6 µM. Moreover, the TGI in [7] was 29.8 µM; in [8], 45.8 µM; in [9], 40.3 µM.
As for `c1ccc(CNc2c3c(nc4ccccc24)CCC3)cc1`, the TGI was found to be 45.3 µM in assay [1]; 25.6 µM in assay [2]; 25.9 µM in assay [3]; 58.7 µM in [4]; 29.9 µM in [5]; 30.4 µM in [6]. Moreover, the TGI in assay [7] was found to be 22 µM; in assay [8], 67.7 µM; in assay [9], 30.4 µM.
For `N#CC1=C2Sc3ccccc3N2[C@H](c2ccccc2)[C@H]2COC(=O)[C@@H]12`, the TGI in assay [1] was 52.8 µM; in assay [2], > 100 µM; in [3], > 100 µM; in assay [4], > 100 µM; in assay [5] it was 87.2 µM; in assay [6] it was > 100 µM. Moreover, the TGI in assay [7], in assay [8] and in [9] was > 100 µM in each case.
As to `COc1ccc(CCn2cnc3ccccc32)cc1`, the TGI in assay [1], in assay [2], in [3], in [4], in [5] and in assay [6] was > 100 µM in each case. For the same compound, the TGI in assay [7], in [8] and in assay [9] was > 100 µM in each case.
As to `O=C(Nc1sccc1S(=O)(=O)c1ccccc1)c1cccnc1`, the TGI in [1], in assay [2], in assay [3], in assay [4], in assay [5] and in assay [6] was > 100 µM in each case. Besides, the TGI in assay [7], in assay [8] and in assay [9] was > 100 µM throughout.
Consider `COc1ccc2nc3cc(Cl)ccc3c(NCCCCCC(=O)NC(COc3cnc4c(ccc5cccnc54)c3)COc3cnc4c(ccc5cccnc54)c3)c2c1`, for which the TGI in assay [1] was > 100 µM; in [2] it was 35.8 µM; in [3] it was > 100 µM; in [4] it was > 100 µM; in assay [5], 20.2 µM; in assay [6], 30.2 µM. In addition, the TGI in assay [7] is 55.5 µM; in assay [8] it was > 100 µM; in assay [9], 21.8 µM.
As for `Cn1ccnc1S/C(=C\C=C(C#N)C#N)c1ccc(Cl)cc1`, the TGI was 6.16 µM in assay [1]; 11.1 µM in assay [2]; 4.18 µM in [3]; > 17.9 µM in assay [4]; 53.6 µM in assay [5]; 5.4 µM in [6]. For the same compound, the values for the TGI in assay [7], in assay [8] and in assay [9] were 11.3 µM, 10.8 µM and 6.85 µM, respectively. Also, the GI50 in assay [5] was 19.2 µM.
As for `CC(C)C[C@H](NC(=O)[C@H](Cc1cccc2ccccc12)NC(=O)N1CCOCC1)B(O)O`, the GI50 in [1] is 0.00283 µM; in assay [2], 0.00383 µM; in assay [3], 0.000654 µM; in assay [5] it was 0.000359 µM; in [9], 0.00196 µM. Also, the TGI is 0.0147 µM and 0.0371 µM in assay [1]; 0.0137 µM and < 0.018 µM in assay [2]; 0.00322 µM and < 0.0122 µM in assay [3]; > 100 µM in assay [4]; 0.00618 µM in [5]; 0.00195 µM in assay [6]. For the same compound, the TGI in assay [8] was > 100 µM; in assay [9], 0.0245 µM and 0.0429 µM.
